Laboratory results published in PubChem BioAssay AID330 (DTP/NCI, 2004).
Where “and” joins values, the source holds several entries; their conditions need not be identical. Equal entries are not always repeated. Inconclusive results and toxic doses are left out. Rule for the calls: active = survival T/C of 150% or more; inactive = T/C below 125% in these data.

Test system: P388 leukemia ip, CD2F1 mice, survival T/C
Experiment: NCI In Vivo Anticancer Drug Screen. Data for tumor model P388 Leukemia (intraperitoneal) in CD2F1 (CDF1) mice
Conditions: endpoint: median survival time, higher = longer survival
In short: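 Mice carrying the transplanted tumor received test compound or vehicle. Survival was recorded in each group, and the value is the treated-group measurement divided by that of the vehicle-treated control group.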

[1] = dose: 100.0 mg/kg/injection, schedule: Q04DX003 (ip), vehicle: saline with Tween-80
[2] = dose: 200.0 mg/kg/injection, schedule: Q04DX003 (ip), vehicle: saline with Tween-80
[3] = dose: 400.0 mg/kg/injection, schedule: Q04DX003 (ip), vehicle: saline with Tween-80
[4] = dose: 100.0 mg/kg/injection, schedule: Q01DX009 (ip), vehicle: saline with Tween-80
[5] = dose: 50.0 mg/kg/injection, schedule: Q01DX005 (ip), vehicle: Klucel (hydroxypropylcellulose) (HPC)
[6] = dose: 100.0 mg/kg/injection, schedule: Q01DX005 (ip), vehicle: Klucel (hydroxypropylcellulose) (HPC)
[7] = dose: 200.0 mg/kg/injection, schedule: Q01DX005 (ip), vehicle: Klucel (hydroxypropylcellulose) (HPC)

Measured: T/C

CCCCCCC(=O)OCCN1CCN(CC/C=C2\c3ccccc3Sc3ccc(C(F)(F)F)cc32)CC1
inactive: dose: 12.5 mg/kg/injection, schedule: Q01DX009 (ip), vehicle: saline 100 % of control and 95 % of control | dose: 12.5 mg/kg/injection, schedule: Q01DX009 (ip), vehicle: suspension in saline 98 % of control | dose: 25.0 mg/kg/injection, schedule: Q01DX009 (ip), vehicle: saline 112 % of control | dose: 25.0 mg/kg/injection, schedule: Q01DX009 (ip), vehicle: suspension in saline 102 % of control and 94 % of control | dose: 50.0 mg/kg/injection, schedule: Q01DX009 (ip), vehicle: saline 106 % of control and 95 % of control | dose: 50.0 mg/kg/injection, schedule: Q01DX009 (ip), vehicle: suspension in saline 100 % of control and 123 % of control and 92 % of control | dose: 100.0 mg/kg/injection, schedule: Q01DX009 (ip), vehicle: saline 99 % of control and 113 % of control | dose: 100.0 mg/kg/injection, schedule: Q01DX009 (ip), vehicle: suspension in saline 107 % of control (2×) and 92 % of control

CCOC(=O)CN(C)C(c1ccccc1)c1cccs1 (stereo not drawn)
inactive: dose: 100.0 mg/kg/injection, schedule: Q04DX002 (ip), vehicle: Klucel (hydroxypropylcellulose) (HPC) 102 % of control | dose: 200.0 mg/kg/injection, schedule: Q04DX002 (ip), vehicle: Klucel (hydroxypropylcellulose) (HPC) 105 % of control

COc1ccc(/C=N\O)cc1OC
inactive: [1] 100 % of control | [2] 100 % of control | [3] 100 % of control

COC(=O)CCC(=O)N(C)CCc1c[nH]c2ccccc12
inactive: [4] 90 % of control | dose: 200.0 mg/kg/injection, schedule: Q01DX009 (ip), vehicle: saline with Tween-80 90 % of control | dose: 400.0 mg/kg/injection, schedule: Q01DX009 (ip), vehicle: saline with Tween-80 90 % of control

CCC[CH2][Sn]([CH2]CCC)([NH]c1ncnc2[nH]cnc12)[NH]c1ncnc2[nH]cnc12
inactive: dose: 1.56 mg/kg/injection, schedule: Q01DX005 (ip), vehicle: Klucel (hydroxypropylcellulose) (HPC) 98 % of control | dose: 3.12 mg/kg/injection, schedule: Q01DX005 (ip), vehicle: Klucel (hydroxypropylcellulose) (HPC) 110 % of control | dose: 6.25 mg/kg/injection, schedule: Q01DX005 (ip), vehicle: Klucel (hydroxypropylcellulose) (HPC) 121 % of control

Cc1nn(Cc2ccccc2)c(C)c1-c1c(C)nn(Cc2ccccc2)c1C
inactive: [5] 104 % of control | [6] 103 % of control | [7] 99 % of control

Cn1cccc1C1NC(=O)C(c2cccn2C)NC1=O (stereo not drawn)
inactive: [5] 95 % of control | [6] 96 % of control | [7] 92 % of control

O=S1(=O)c2ccccc2N(c2ccccc2)c2nnnn21
inactive: dose: 60.0 mg/kg/injection, schedule: Q01DX005 (ip), vehicle: saline with Tween-80 88 % of control | dose: 120.0 mg/kg/injection, schedule: Q01DX005 (ip), vehicle: saline with Tween-80 96 % of control | dose: 240.0 mg/kg/injection, schedule: Q01DX005 (ip), vehicle: saline with Tween-80 99 % of control

NCCO/C=C/C(N)C(=O)O (stereo not drawn)
inactive: dose: 31.2 mg/kg/injection, schedule: Q01DX009 (ip), vehicle: saline 99 % of control | dose: 62.5 mg/kg/injection, schedule: Q01DX009 (ip), vehicle: saline 99 % of control | dose: 125.0 mg/kg/injection, schedule: Q01DX009 (ip), vehicle: saline 99 % of control

CC(C)N1C(=O)C(C#N)=C(c2ccccc2)SC1c1ccccc1 (stereo not drawn)
inactive: dose: 3.13 mg/kg/injection, schedule: Q01DX009 (ip), vehicle: saline with Tween-80 104 % of control | dose: 6.25 mg/kg/injection, schedule: Q01DX009 (ip), vehicle: saline with Tween-80 101 % of control | dose: 12.5 mg/kg/injection, schedule: Q01DX009 (ip), vehicle: saline with Tween-80 106 % of control | dose: 50.0 mg/kg/injection, schedule: Q01DX009 (ip), vehicle: saline with Tween-80 94 % of control | [4] 99 % of control

C=C1C(=O)CCC1C#N (stereo not drawn)
inactive: dose: 50.0 mg/kg/injection, schedule: Q04DX002 (ip), vehicle: suspension in saline 100 % of control | dose: 100.0 mg/kg/injection, schedule: Q04DX002 (ip), vehicle: suspension in saline 100 % of control | dose: 200.0 mg/kg/injection, schedule: Q04DX002 (ip), vehicle: suspension in saline 93 % of control

COC(=O)N1c2ccccc2C=C(NC(C)=O)C1C#N (stereo not drawn)
inactive: [1] 90 % of control | [2] 100 % of control | [3] 100 % of control

CC1CN1P(=S)(Oc1ccccc1)N1CC1C (stereo not drawn)
inactive: [4] 110 % of control | [1] 109 % of control | [2] 118 % of control | [3] 122 % of control

CS(C)=Nc1ccc([N+](=O)[O-])cc1
inactive: dose: 100.0 mg/kg/injection, schedule: Q01DX001 (ip), vehicle: Klucel (hydroxypropylcellulose) (HPC) 109 % of control | dose: 200.0 mg/kg/injection, schedule: Q01DX001 (ip), vehicle: Klucel (hydroxypropylcellulose) (HPC) 100 % of control
